# How the values were obtained:
# Assay in all cases: in vitro antibacterial evaluation, MIC by broth dilution
# Format in all cases: cell-based
# Staphylococcus sp. = conditions: broth dilution, 18 hours at 35° C.
# In short: (§1)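 Following National Committee for Clinical Laboratory Standards recommendations (M7-A2), susceptibility was measured by dilution in Muller-Hinton II […]. Bacteria were seeded at 5×10^5 CFU/mL against compound concentrations from 64 down to 0.06 μg/mL.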
# Escherichia coli = conditions: 18 hours at 35° C.
# In short: as §1
# Enterococcus sp. = conditions: broth dilution, 18 hours at 35° C.
# In short: as §1
# Streptococcus sp. = conditions: broth dilution, 18 hours at 35° C.
# In short: as §1
compound,measurement,setting,value
CC(c1ccccc1)C1NC(=O)CNC(=O)C(CO)NC(=O)C(C(O)C2CNC(=N)N2C2OC(CO)C(O)C(O)C2O)NC(=O)C(C(O)C2CNC(=N)N2)NC(=O)C(Cc2ccc(OC3OC(CO)C(OC4OC5COC(CCc6ccccc6)OC5C(O)C4O)C(O)C3O)cc2)NC1=O (stereo not shown) [Example 124],MIC Staphylococcus aureus (ATCC 29213),Staphylococcus sp.,2 µg/mL
same,MIC Staphylococcus aureus (GC 1131),Staphylococcus sp.,2 µg/mL
same,MIC Staphylococcus aureus (GC 3051),Staphylococcus sp.,2 µg/mL
same,MIC Staphylococcus aureus (GC 3053),Staphylococcus sp.,2 µg/mL
same,MIC Staphylococcus aureus (GC 4541),Staphylococcus sp.,2 µg/mL
same,MIC Staphylococcus aureus (GC 4542),Staphylococcus sp.,1 µg/mL
same,MIC Staphylococcus aureus (GC 4544),Staphylococcus sp.,2 µg/mL
same,MIC Staphylococcus aureus (GC 4545),Staphylococcus sp.,2 µg/mL
same,MIC Staphylococcus aureus (GC 1131),"Staphylococcus sp.; inoculum 5×10^5 CFU/mL, strain GC 1131",2 µg/mL
same,MIC Staphylococcus aureus (ATCC 29213),Staphylococcus sp.; strain ATCC 29213,2 µg/mL
same,MIC Staphylococcus aureus (GC 3051),Staphylococcus sp.; strain GC 3051,2 µg/mL
same,MIC Staphylococcus aureus (GC 3053),Staphylococcus sp.; strain GC 3053,2 µg/mL
same,MIC Staphylococcus aureus (GC 4541),Staphylococcus sp.; strain GC 4541,2 µg/mL
same,MIC Staphylococcus aureus (GC 4542),Staphylococcus sp.; strain GC 4542,1 µg/mL
same,MIC Staphylococcus aureus-SMITH (GC 4543),Staphylococcus sp.; strain GC 4543,2 µg/mL
same,MIC Staphylococcus aureus (GC 4544),Staphylococcus sp.; strain GC 4544,2 µg/mL
same,MIC Staphylococcus aureus (GC 4545),Staphylococcus sp.; strain GC 4545,2 µg/mL
same,MIC Staphylococcus haemolyticus (GC 4546),Staphylococcus sp.; strain GC 4546,2 µg/mL
same,MIC Coagulase Negative Staphylococcus (GC 4547),Staphylococcus sp.; strain GC 4547,2 µg/mL
same,MIC Coagulase Negative Staphylococcus (GC 4548),Staphylococcus sp.; strain GC 4548,1 µg/mL
same,MIC Coagulase Negative Staphylococcus (GC 4549),Staphylococcus sp.; strain GC 4549,1 µg/mL
same,MIC Coagulase Negative Staphylococcus (GC 4551),Staphylococcus sp.; strain GC 4551,2 µg/mL
same,MIC Coagulase Negative Staphylococcus (GC 6257),Staphylococcus sp.; strain GC 6257,1 µg/mL
same,MIC Staphylococcus aureus-SMITH (GC 4543),Staphylococcus sp.; strain SMITH GC 4543,2 µg/mL
same,MIC Escherichia coli (ATCC 25922),Escherichia coli; strain ATCC 25922,32 µg/mL
same,MIC Escherichia coli (GC 4559),Escherichia coli; strain GC 4559,32 µg/mL
same,MIC Escherichia coli (GC 4560),Escherichia coli; strain GC 4560,1 µg/mL
same,MIC Enterococcus avium (GC 4558),Enterococcus sp.; Enterococcus avium (GC 4558),0.25 µg/mL
same,MIC Enterococcus faecalis (ATCC 29212),Enterococcus sp.; Enterococcus faecalis (ATCC 29212),4 µg/mL
same,MIC Enterococcus faecalis (GC 2242),Enterococcus sp.; Enterococcus faecalis (GC 2242),4 µg/mL
same,MIC Enterococcus faecalis (GC 2691),Enterococcus sp.; Enterococcus faecalis (GC 2691),4 µg/mL
same,MIC Enterococcus faecalis (GC 3059),Enterococcus sp.; Enterococcus faecalis (GC 3059),4 µg/mL
same,MIC Enterococcus faecalis (GC 4552),Enterococcus sp.; Enterococcus faecalis (GC 4552),4 µg/mL
same,MIC Enterococcus faecalis (GC 4553),Enterococcus sp.; Enterococcus faecalis (GC 4553),4 µg/mL
same,MIC Enterococcus faecalis (GC 4554),Enterococcus sp.; Enterococcus faecalis (GC 4554),4 µg/mL
same,MIC Enterococcus faecalis (GC 6189),Enterococcus sp.; Enterococcus faecalis (GC 6189),4 µg/mL
same,MIC Enterococcus faecium (GC 2243),Enterococcus sp.; Enterococcus faecium (GC 2243),4 µg/mL
same,MIC Enterococcus faecium (GC 4556),Enterococcus sp.; Enterococcus faecium (GC 4556),4 µg/mL
same,MIC Enterococcus faecium (GC 4557),Enterococcus sp.; Enterococcus faecium (GC 4557),1 µg/mL
same,MIC Enterococcus faecalis (ATCC 29212),Enterococcus sp.; strain ATCC 29212,4 µg/mL
same,MIC Enterococcus faecalis (GC 2242),Enterococcus sp.; strain GC 2242,4 µg/mL
same,MIC Enterococcus faecium (GC 2243),Enterococcus sp.; strain GC 2243,4 µg/mL
same,MIC Enterococcus faecalis (GC 2691),Enterococcus sp.; strain GC 2691,4 µg/mL
same,MIC Enterococcus faecalis (GC 3059),Enterococcus sp.; strain GC 3059,4 µg/mL
same,MIC Enterococcus faecalis (GC 4552),Enterococcus sp.; strain GC 4552,4 µg/mL
same,MIC Enterococcus faecalis (GC 4553),Enterococcus sp.; strain GC 4553,4 µg/mL
same,MIC Enterococcus faecalis (GC 4554),Enterococcus sp.; strain GC 4554,4 µg/mL
same,MIC Enterococcus faecium (GC 4556),Enterococcus sp.; strain GC 4556,4 µg/mL
same,MIC Enterococcus faecium (GC 4557),Enterococcus sp.; strain GC 4557,1 µg/mL
same,MIC Enterococcus avium (GC 4558),Enterococcus sp.; strain GC 4558,0.25 µg/mL
same,MIC Enterococcus faecalis (GC 6189),Enterococcus sp.; strain GC 6189,4 µg/mL
same,MIC Streptococcus agalactiae (GC 4564),Streptococcus sp.; Streptococcus agalactiae (GC 4564),1 µg/mL
same,MIC Streptococcus pneumoniae (ATCC 6301),Streptococcus sp.; Streptococcus pneumoniae (ATCC 6301),<0.06 µg/mL
same,MIC Streptococcus pneumoniae (GC 1894),Streptococcus sp.; Streptococcus pneumoniae (GC 1894),<0.06 µg/mL
same,MIC Streptococcus pneumoniae (GC 4565),Streptococcus sp.; Streptococcus pneumoniae (GC 4565),<0.06 µg/mL
same,MIC Streptococcus pyogenes (GC 4563),Streptococcus sp.; Streptococcus pyogenes (GC 4563),0.12 µg/mL
same,MIC Streptococcus pneumoniae (ATCC 6301),Streptococcus sp.; strain ATCC 6301,<0.06 µg/mL
same,MIC Streptococcus pneumoniae (GC 1894),Streptococcus sp.; strain GC 1894,<0.06 µg/mL
same,MIC Streptococcus pyogenes (GC 4563),Streptococcus sp.; strain GC 4563,0.12 µg/mL
same,MIC Streptococcus agalactiae (GC 4564),Streptococcus sp.; strain GC 4564,1 µg/mL
same,MIC Streptococcus pneumoniae (GC 4565),Streptococcus sp.; strain GC 4565,<0.06 µg/mL
